≈ marks a conversion by molar mass, not a printed value. Read-outs that look alike come from different tables or passages of the source.
Tests used:
NCI-H358 cells = assay: NCI-H358 CTG proliferation assay (120 h) (NSCLC, G12C); type: cell-based, human; details: Homo sapiens
Method: NCI-H358 CTG Proliferation Assay (120 h) (NSCLC, G12C)
NCI-H358 cells (ATCC No. CRL-5807) are dispensed into white bottom opaque 96 well plates (Perkin Elmer cat no. 5680) at a density of 2000 cells per well in 100 μL RPMI-1640 ATCC-Formulation (Gibco #A10491)+10% FCS (fetal calf serum) (assay 1) or into black 384-well plates, flat and clear bottom (Greiner, PNr. 781091) at a density of 200 cells per well in 60 μl RPMI-1640 ATCC-Formulation (Gibco #A10491)+10% FCS (fetal calf serum) (assay 2). […] Compounds (10 mM stock in DMSO) are added at logarithmic dose series using the HP Digital Dispenser D300 (Tecan) (assay 1) or the ECHO acoustic liquid handler system (Beckman Coulter) (assay 2), normalizing for added DMSO and including DMSO controls. For the TO time point measurement, untreated cells are analyzed at the time of compound addition. Plates are incubated for 120 h, and cell viability is measured using CellTiter-Glo luminescent cell viability reagent (Promega product code G7570). Viability (stated as percent of control) is defined as relative luminescence units RLU of each well divided by the RLU of cells in DMSO controls. IC50 values are determined from viability measurements by non-linear regression using a four parameter model.

AsPC-1 cells = assay: AsPC-1 CTG proliferation assay (120 h) (pancreatic cancer, G12D); type: cell-based; details: Homo sapiens, ASPC1
Method: AsPC-1 CTG Proliferation Assay (120 h) (Pancreatic Cancer, G12D)
The CTG assay is designed to measure quantitatively the proliferation of AsPC-1 cells (ATCC […]), using the CellTiter Glow Assay Kit (Promega G7571). Cells are grown in RPMI medium (ATCC) supplemented with Fetal Calf Serum (Life Technologies, Gibco BRL, Cat. No. 10270-106). On “day 0” 2000 AsPC-1 cells are seeded in 60 μL RPMI ATCC+10% FCS+Penstrep in a 384-well plate, flat and clear bottom (Greiner, PNr. 781091). Cells are then incubated in the plates at 37° C. in a CO2 incubator overnight. On day 1, compounds (10 mM stock in DMSO) are added with the ECHO acoustic liquid handler system (Beckman Coulter), including DMSO controls. Plates are incubated for 120 h, and cell viability is measured using CellTiter-Glo luminescent cell viability reagent (Promega product code G7570). Viability (stated as percent of control) is defined as relative luminescence units RLU of each well divided by the RLU of cells in DMSO controls. IC50 values are determined from viability measurements by non-linear regression using a four-parameter model.

[1] = Solubility measurement (DMSO solution method), McIlvaine buffer pH 4.5 or 6.8; type: physicochemical; details: aqueous buffer, kinetic from dmso stock, DMSO stock diluted to 250 μM, 24 h shaking at ambient temperature
Method: The DMSO solution is diluted with an aqueous medium (Mcllvaine buffer with pH=4.5 or 6.8) to a final concentration of 250 μM. After 24 h of shaking at ambient temperature a potentially formed precipitate is removed by filtration. The concentration of the test compound in the filtrate is determined by LC-UV methods by calibrating the signal to the signal of a reference solution with complete dissolution of the test compound in acetonitrile/water (1:1) with known concentration.

[2] = assay 2, CTG, read-out: H358 (assay 2) IC50
[3] = McIlvaine buffer pH 4.5, read-out: solubility pH 4.5
[4] = McIlvaine buffer pH 6.8, read-out: solubility pH 6.8
[5] = assay 1, CTG, read-out: H358 (assay 1) IC50

SMILES | IC50 (NCI-H358 cells; [2]) [nM] | IC50 (AsPC-1 cells) [nM] | solubility at 24 h [1, 3] [µg/mL] | solubility at 24 h [1, 4] [µg/mL] | IC50 (NCI-H358 cells; [5]) [nM]
C[C@H](Oc1cc(N2Cc3cnn(C)c3C2)nc(-c2noc3c2CCC[C@@]32CCCc3sc(N)c(C#N)c32)n1)[C@@H]1CCCN1C [II-63] | 66 | 3300 | < 1 | < 1 | 
C[C@H](Oc1cc(-n2cnc3cccnc32)nc(-c2noc3c2CCC[C@@]32CCCc3sc(N)c(C#N)c32)n1)[C@@H]1CCCN1C [II-65] | 3220 | 3560 | 7 (≈ 11.5 µM) | < 1 | 
C[C@H](Oc1cc(N2CC[C@@H](O)C2)nc(-c2noc3c2CCC[C@@]32CCCc3sc(N)c(C#N)c32)n1)[C@@H]1CCCN1C [II-66] | 586 | 3970 | > 117 | 112 (≈ 195 µM) | 
C[C@H](Oc1cc(C2=CCOCC2)nc(-c2noc3c2CCC[C@@]32CCCc3sc(N)c(C#N)c32)n1)[C@@H]1CCCN1C [II-67] | 1040 | 2800 | 98 (≈ 171 µM) | 41 (≈ 71.6 µM) | 
Cc1cn(C)nc1-c1cc(O[C@@H](C)[C@@H]2CCCN2C)nc(-c2noc3c2CCC[C@@]32CCCc3sc(N)c(C#N)c32)n1 [II-68] | 111 | 3240 | 79 (≈ 135 µM) | 5 (≈ 8.55 µM) | 
C[C@H](Oc1cc(-c2cnn(C)c2)nc(-c2noc3c2CCC[C@@]32CCCc3sc(N)c(C#N)c32)n1)[C@@H]1CCCN1C [II-74] | 1680 | 3210 | 57 (≈ 99.9 µM) | 29 (≈ 50.8 µM) | 
C[C@H](Oc1cc(C2CCOCC2)nc(-c2noc3c2CCC[C@@]32CCCc3sc(N)c(C#N)c32)n1)[C@@H]1CCCN1C [II-76] | 507 | 3970 | > 122 | 104 (≈ 181 µM) | 
CC(=O)N1CC=C(c2cc(O[C@@H](C)[C@@H]3CCCN3C)nc(-c3noc4c3CCC[C@@]43CCCc4sc(N)c(C#N)c43)n2)CC1 [II-81] | 1200 | 4860 | 114 (≈ 186 µM) | 84 (≈ 137 µM) | 
C[C@H](Oc1cc(-c2cncnc2)nc(-c2noc3c2CCC[C@@]32CCCc3sc(N)c(C#N)c32)n1)[C@@H]1CCCN1C [II-82] | 807 | 5450 | 102 (≈ 179 µM) | 72 (≈ 127 µM) | 
C[C@H](Oc1cc(-c2ccn(-c3ccsc3)n2)nc(-c2noc3c2CCC[C@@]32CCCc3sc(N)c(C#N)c32)n1)[C@@H]1CCCN1C [II-84] | > 25000 | 3060 | < 1 | < 1 | 
C[C@H](Oc1cc(-c2cnn(C)n2)nc(-c2noc3c2CCC[C@@]32CCCc3sc(N)c(C#N)c32)n1)[C@@H]1CCCN1C [II-86] | 993 | 4140 | 112 (≈ 196 µM) | 60 (≈ 105 µM) | 
C[C@H](Oc1cc(-c2ccn(-c3ccccc3)n2)nc(-c2noc3c2CCC[C@@]32CCCc3sc(N)c(C#N)c32)n1)[C@@H]1CCCN1C [II-89] | 220 | 3040 | 2 (≈ 3.16 µM) | < 1 | 
CO[C@@H]1C[C@@H]([C@H](C)Oc2cc(-c3ccn(C)n3)nc(-c3noc4c3CCC[C@@]43CCCc4sc(N)c(C#N)c43)n2)N(C)C1 [II-91] | 19 | 2260 | 118 (≈ 196 µM) | < 1 | 78
C[C@H](Oc1cc(-n2ccnc2Cl)nc(-c2noc3c2CCC[C@@]32CCCc3sc(N)c(C#N)c32)n1)[C@@H]1CCCN1C [II-93] | 872 | 4640 | 97 (≈ 164 µM) | 20 (≈ 33.8 µM) | 
C[C@H](Oc1cc(C2COCCO2)nc(-c2noc3c2CCC[C@@]32CCCc3sc(N)c(C#N)c32)n1)[C@@H]1CCCN1C (stereo partly drawn) [II-95] | 400 | 3320 | > 134 | > 121 | 
C[C@H](Oc1cc(-c2ccn(C)n2)nc(-c2noc3c2CCC[C@@]32CCCc3sc(N)c(C#N)c32)n1)[C@@H]1CCCN1C [II-96] | 98 | 2240 | 107 (≈ 187 µM) | 2 (≈ 3.5 µM) | 
C[C@H](Oc1cc(-c2cccc(CO)c2)nc(-c2noc3c2CCC[C@@]32CCCc3sc(N)c(C#N)c32)n1)[C@@H]1CCCN1C [II-97] | 242 | 2360 | 40 (≈ 67 µM) | < 1 | 
C[C@H](Oc1cc(-c2ccn(C3CC3)n2)nc(-c2noc3c2CCC[C@@]32CCCc3sc(N)c(C#N)c32)n1)[C@@H]1CCCN1C [II-98] | 242 | 3340 | 83 (≈ 139 µM) | < 1 | 
C[C@H](Oc1cc(N2CCC(C#N)C2)nc(-c2noc3c2CCC[C@@]32CCCc3sc(N)c(C#N)c32)n1)[C@@H]1CCCN1C (stereo partly drawn) [II-99] | 1340 | 3240 | 115 (≈ 197 µM) | 84 (≈ 144 µM) | 

These reach a lower IC50 (AsPC-1 cells). Values come first.

IC50 (NCI-H358 cells; [2]) [nM] | IC50 (AsPC-1 cells) [nM] | solubility at 24 h [1, 3] [µg/mL] | solubility at 24 h [1, 4] [µg/mL] | IC50 (NCI-H358 cells; [5]) [nM] | SMILES
 | 1070 | 40 (≈ 69.6 µM) | 8 (≈ 13.9 µM) | 36 | C[C@H](Oc1cc(N2CCNC2=O)nc(-c2noc3c2CCC[C@@]32CCCc3sc(N)c(C#N)c32)n1)[C@@H]1CCCN1C [II-64]
290 | 1730 | 108 (≈ 194 µM) | 76 (≈ 137 µM) |  | C[C@H](Oc1cc(-n2ccnc2)nc(-c2noc3c2CCC[C@@]32CCCc3sc(N)c(C#N)c32)n1)[C@@H]1CCCN1C [II-69]
131 | 1940 | 109 (≈ 195 µM) | 94 (≈ 169 µM) |  | C[C@H](Oc1cc(-n2cncn2)nc(-c2noc3c2CCC[C@@]32CCCc3sc(N)c(C#N)c32)n1)[C@@H]1CCCN1C [II-70]
209 | 1670 | > 112 | 82 (≈ 147 µM) |  | C[C@H](Oc1cc(-c2cc[nH]n2)nc(-c2noc3c2CCC[C@@]32CCCc3sc(N)c(C#N)c32)n1)[C@@H]1CCCN1C [II-71]
9 | 783 | > 146 | 89 (≈ 145 µM) |  | C[C@H](Oc1cc(N2CCCC3(COC3)C2)nc(-c2noc3c2CCC[C@@]32CCCc3sc(N)c(C#N)c32)n1)[C@@H]1CCCN1C [II-72]
10 | 1560 | > 122 | 91 (≈ 155 µM) | 49 | C[C@H](Oc1cc(N2CCN(C)C2=O)nc(-c2noc3c2CCC[C@@]32CCCc3sc(N)c(C#N)c32)n1)[C@@H]1CCCN1C [II-75]
9 | 738 | > 143 | > 134 | 51 | C[C@H](Oc1cc(N2CCOC3(COC3)C2)nc(-c2noc3c2CCC[C@@]32CCCc3sc(N)c(C#N)c32)n1)[C@@H]1CCCN1C [II-77]
170 | 2120 | 41 (≈ 72.2 µM) | 3 (≈ 5.28 µM) |  | C[C@H](Oc1cc(-c2ccncc2)nc(-c2noc3c2CCC[C@@]32CCCc3sc(N)c(C#N)c32)n1)[C@@H]1CCCN1C [II-78]
23 | 1290 | 38 (≈ 66.9 µM) | 3 (≈ 5.28 µM) |  | C[C@H](Oc1cc(-c2ccccn2)nc(-c2noc3c2CCC[C@@]32CCCc3sc(N)c(C#N)c32)n1)[C@@H]1CCCN1C [II-85]
20 | 985 | > 126 | > 122 | 20 | C[C@H](Oc1cc([C@@H]2CCOC2)nc(-c2noc3c2CCC[C@@]32CCCc3sc(N)c(C#N)c32)n1)[C@@H]1CCCN1C [II-94]
